In US10960084B2, “Modulation of fluid intake” (California Institute of Technology, priority 2018, dated 2021):
“Also recorded” adds a separate entry of the source.

How the values were obtained:
Format in all cases: in vivo, mice
MnPO^GLP1r neurons = assay: Drinking assays with chemogenetic inhibition of MnPO^GLP1r neurons by CNO; settings: hM4Di in MnPO^GLP1r
Experimental: For water-restriction experiments, animals were provided with 1 mL of water daily. For food restriction experiments, animals were provided 0.5 pellets/20 g body weight daily. All assays were performed in a modified lickometer as described previously^[35] or Biodaq monitoring system (Research Diets Inc). For all photometry assays, animals were acclimatized for 10-15 min in the lickometer cage before stimuli were given.
(§1) Long-term access assays: Optogenetic Testing—For FIGS. 1L-N and FIGS. 7L-O, satiated mice were given ad libitum access to water for 20 min with photostimulation. Photostimulation was delivered for 1-s followed by 3-s intervals throughout the behavioral sessions. For FIGS. 2J-M and FIGS. 11C-E, mice were given access to water for 20 min after 24 h water-restriction, and photostimulation was delivered for the first 10 min. For feeding assays (FIGS. 2J-M), animals were single-housed in Biodaq cages after 24 h food-restriction, and chow intake was measured for 20 min with or without light stimulation. For acute inhibition experiments, mice were given access to 150 mM NaCl (FIGS. 5D-E, FIGS. 13E-F), water (FIGS. 1L-N, FIGS. 7L-O, FIGS. 13A-D, FIGS. 13G-H) for 20-30 min after 24 h water-restriction or 300 mM sucrose (FIGS. 1L-N, FIGS. 7L-O) after food-restriction. For all acute inhibition experiments, CNO was injected at 10 mg/kg body weight, 30 min prior to the start of the behavior session. For acute activation experiments, CNO was injected at 1 mg/kg body weight (FIGS. 12L-M), 30 min prior to the start of the behavior session. For FIG. 3A, FIGS. 9A-C, and FIG. 13L, water or saline access was provided for 30 min after 24 hours of water restriction. For FIGS. 4A-B, water or HydroGel (ClearH2O) in a cup was provided for 30 min after 24 and 36 hours of water restriction, respectively. The weight of the cup was measured before and after the behavior session. For FIGS. 4K-L, 0.5 pellets of chow was provided for 30 min after 24 h food-restriction. The entire session was recorded using a camera at 30 fps and ingestion episodes were manually annotated.

SFO^nNOS neurons = assay: Acute activation of SFO^nNOS neurons by hM3Dq-mCherry with CNO; settings: hM3Dq-mCherry in SFO^nNOS; intraperitoneal CNO 1 mg/kg
Experimental: Long-term access assays: Optogenetic Testing—For FIGS. 1L-N and FIGS. 7L-O, satiated mice were given ad libitum access to water for 20 min with photostimulation. Photostimulation was delivered for 1-s followed by 3-s intervals throughout the behavioral sessions. For FIGS. 2J-M and FIGS. 11C-E, mice were given access to water for 20 min after 24 h water-restriction, and photostimulation was delivered for the first 10 min. For feeding assays (FIGS. 2J-M), animals were single-housed in Biodaq cages after 24 h food-restriction, and chow intake was measured for 20 min with or without light stimulation. […] The weight of the cup was measured before and after the behavior session. […] The entire session was recorded using a camera at 30 fps and ingestion episodes were manually annotated.
We measured bulk fluorescence signals using fiber photometry as previously described^[26]. […] The fluorescence signal was then focused onto a femtowatt photoreceiver (Newport, Model 2151). […] The licks from the lickometer were simultaneously recorded as real-time TTL signals to the RP2.1. Fluorescence changes were analyzed using custom MATLAB (MathWorks) code as described previously^[26]. […] The resultant ΔF/F was calculated as (raw 490 nm signal-fitted 405 nm signal)/(fitted 405 nm signal). For brief access tests, the Area Under Curve (ΣΔFduring) was quantified by integrating the fluorescence signals during the bout. […]

mCherry control animals = assay: mCherry controls for acute inhibition (CNO without hM4Di)
Experimental: as §1, with “For FIG. 3A, FIGS. 9A-C, and FIG. 13L, water or saline access was provided for 30 min after 24 hours of water restriction. For FIGS. 4A-B, water or HydroGel (ClearH2O) in a cup was provided for 30 min after 24 and 36 hours of water restriction, respectively.” left out, “For FIGS. 4K-L, 0.5 pellets of chow was provided for 30 min after 24 h food-restriction.” left out

Compound: C[N+]1([O-])CCN(C2=Nc3cc(Cl)ccc3Nc3ccccc32)CC1 [CNO, clozapine-N-oxide]
- water or saline intake under satiated conditions (MnPO^GLP1r neurons; satiated): did not elevate water or saline intake
- total water intake (30 min) (MnPO^GLP1r neurons; water-restricted animals): minor effect
- water consumption at the onset of drinking (first 1 min) (MnPO^GLP1r neurons; water-restricted animals): significantly increases water consumption at the onset of drinking
- total amount of isotonic saline intake (MnPO^GLP1r neurons; water-restricted, 30 min, CNO 10 mg/kg vs vehicle): strikingly increased; also recorded: causes overdrinking of isotonic saline
- duration of saline intake (time spent for drinking) (MnPO^GLP1r neurons; water-restricted, 30 min, CNO vs vehicle): strikingly increased
- water drinking (SFO^nNOS neurons): induce water drinking
- intake after water or food-restriction (mCherry control animals; AAV-DIO-mCherry in the MnPO of nNOS-Cre animals, 5-s brief access): showed no reduction
- saline or water drinking, CNO vs vehicle (mCherry control animals; mCherry controls in MnPO^GLP1r, water deprived, 30 min): No significant difference
